# Laboratory results as given in publication PMC10175918 (Communications Biology, 2023).
# Where two headings read alike, the source gives them in different places.
# Experiments:
# Assay in all cases: TGFα-shedding assay-based GPCR screening with chimeric Gα subunit proteins
# Assay type in all cases: cell-based
# 348 GPCRs [1] = target: T1, 348 GPCRs (Homo sapiens, UniProt P30556); conditions: 10µM, Favipiravir 100μM
# T1 construct: expressed in transfected cells; host or cells: HEK293A
# T1 sequence (P30556 1-359): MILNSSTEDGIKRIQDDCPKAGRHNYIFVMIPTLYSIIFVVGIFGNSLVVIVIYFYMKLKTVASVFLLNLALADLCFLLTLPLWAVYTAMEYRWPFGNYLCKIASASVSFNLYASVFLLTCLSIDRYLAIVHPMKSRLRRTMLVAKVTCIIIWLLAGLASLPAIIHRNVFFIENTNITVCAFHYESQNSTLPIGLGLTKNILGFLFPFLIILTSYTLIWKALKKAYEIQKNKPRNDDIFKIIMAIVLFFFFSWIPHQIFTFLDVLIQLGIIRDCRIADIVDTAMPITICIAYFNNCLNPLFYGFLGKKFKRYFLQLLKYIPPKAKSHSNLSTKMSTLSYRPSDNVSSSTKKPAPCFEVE
# 348 GPCRs [2] = target: T2, 348 GPCRs (Homo sapiens, UniProt O14842); conditions: 10µM, Favipiravir 100μM
# T2 construct: expressed in transfected cells; host or cells: HEK293A
# T2 sequence (O14842 whole entry): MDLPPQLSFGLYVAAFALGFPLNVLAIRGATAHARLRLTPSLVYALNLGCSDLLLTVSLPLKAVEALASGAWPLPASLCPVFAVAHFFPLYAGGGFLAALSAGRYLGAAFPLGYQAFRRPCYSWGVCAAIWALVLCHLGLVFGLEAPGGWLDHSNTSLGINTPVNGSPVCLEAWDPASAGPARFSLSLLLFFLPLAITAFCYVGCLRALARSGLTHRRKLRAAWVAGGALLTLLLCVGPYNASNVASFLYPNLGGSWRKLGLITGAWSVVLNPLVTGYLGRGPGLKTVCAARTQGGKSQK
# 348 GPCRs [3] = target: 348 GPCRs (Homo sapiens, UniProt P21918); conditions: 10µM, Favipiravir 100μM
# 348 GPCRs (Homo sapiens, UniProt P21918), sequence (P21918 whole entry): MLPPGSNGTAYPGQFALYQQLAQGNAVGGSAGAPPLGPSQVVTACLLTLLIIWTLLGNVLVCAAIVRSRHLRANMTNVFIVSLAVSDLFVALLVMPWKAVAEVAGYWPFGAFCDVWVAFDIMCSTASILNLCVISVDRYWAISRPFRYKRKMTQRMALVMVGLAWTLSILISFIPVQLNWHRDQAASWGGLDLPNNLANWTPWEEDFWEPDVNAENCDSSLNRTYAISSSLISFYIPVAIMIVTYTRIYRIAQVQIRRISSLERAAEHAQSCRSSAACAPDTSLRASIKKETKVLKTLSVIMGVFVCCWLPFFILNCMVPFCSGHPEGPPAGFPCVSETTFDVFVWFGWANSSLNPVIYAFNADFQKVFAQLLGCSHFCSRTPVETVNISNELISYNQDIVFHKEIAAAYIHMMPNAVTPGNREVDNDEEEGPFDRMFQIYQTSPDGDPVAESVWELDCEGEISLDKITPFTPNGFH
# 348 GPCRs [4] = target: T3, 348 GPCRs (Homo sapiens, UniProt O15354); conditions: 10µM, Favipiravir 100μM
# T3 construct: expressed in transfected cells; host or cells: HEK293A
# T3 sequence (O15354 27-613): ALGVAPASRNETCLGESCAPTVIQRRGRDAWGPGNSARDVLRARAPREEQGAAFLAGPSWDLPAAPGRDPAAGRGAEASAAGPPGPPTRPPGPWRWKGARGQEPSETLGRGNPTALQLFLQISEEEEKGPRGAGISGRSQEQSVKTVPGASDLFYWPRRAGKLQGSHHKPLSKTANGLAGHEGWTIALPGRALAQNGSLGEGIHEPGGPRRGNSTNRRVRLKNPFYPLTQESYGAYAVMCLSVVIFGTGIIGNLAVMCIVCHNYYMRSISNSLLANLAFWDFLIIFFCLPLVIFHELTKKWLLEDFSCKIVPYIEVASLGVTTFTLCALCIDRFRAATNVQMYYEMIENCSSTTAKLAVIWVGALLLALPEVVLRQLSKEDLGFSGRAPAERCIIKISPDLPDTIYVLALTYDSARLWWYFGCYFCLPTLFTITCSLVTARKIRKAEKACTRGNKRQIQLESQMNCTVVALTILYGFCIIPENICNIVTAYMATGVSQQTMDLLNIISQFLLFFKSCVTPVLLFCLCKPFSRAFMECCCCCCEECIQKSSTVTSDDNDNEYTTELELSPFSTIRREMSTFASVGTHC
# 348 GPCRs [5] = target: 348 GPCRs (Homo sapiens, UniProt P41143); conditions: read-out: % GPCR activation compared to TPA, OPRD1 (opioid receptor, delta 1 (DOR)); 10µM, Favipiravir 100μM
# 348 GPCRs (Homo sapiens, UniProt P41143), sequence (P41143 whole entry): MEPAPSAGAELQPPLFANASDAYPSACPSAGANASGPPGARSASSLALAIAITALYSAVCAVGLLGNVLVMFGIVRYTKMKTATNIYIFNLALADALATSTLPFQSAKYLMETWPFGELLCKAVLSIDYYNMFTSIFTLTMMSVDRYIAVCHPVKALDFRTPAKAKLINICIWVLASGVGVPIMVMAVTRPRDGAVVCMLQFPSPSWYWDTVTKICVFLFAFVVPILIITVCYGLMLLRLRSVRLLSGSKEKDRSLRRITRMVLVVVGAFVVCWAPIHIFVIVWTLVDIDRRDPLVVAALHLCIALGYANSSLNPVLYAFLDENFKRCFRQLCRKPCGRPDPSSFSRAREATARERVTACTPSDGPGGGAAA
# 348 GPCRs [6] = target: T4, 348 GPCRs (Homo sapiens, UniProt P47775)
# T4 construct: expressed in transfected cells; host or cells: HEK293A
# T4 sequence (P47775 1-334): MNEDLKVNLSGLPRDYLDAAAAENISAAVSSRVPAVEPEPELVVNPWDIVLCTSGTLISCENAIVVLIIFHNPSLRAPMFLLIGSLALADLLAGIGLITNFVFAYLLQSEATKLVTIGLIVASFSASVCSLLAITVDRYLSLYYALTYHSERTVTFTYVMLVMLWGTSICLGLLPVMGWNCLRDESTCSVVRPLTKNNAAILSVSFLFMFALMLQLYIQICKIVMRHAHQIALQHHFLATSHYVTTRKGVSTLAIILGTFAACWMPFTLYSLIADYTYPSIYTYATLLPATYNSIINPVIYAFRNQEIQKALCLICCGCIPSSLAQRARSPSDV
# 348 GPCRs [7] = target: T5, 348 GPCRs (Homo sapiens, UniProt Q16602); conditions: 10µM, Favipiravir 100μM
# T5 construct: expressed in transfected cells; host or cells: HEK293A
# T5 sequence (Q16602 23-461): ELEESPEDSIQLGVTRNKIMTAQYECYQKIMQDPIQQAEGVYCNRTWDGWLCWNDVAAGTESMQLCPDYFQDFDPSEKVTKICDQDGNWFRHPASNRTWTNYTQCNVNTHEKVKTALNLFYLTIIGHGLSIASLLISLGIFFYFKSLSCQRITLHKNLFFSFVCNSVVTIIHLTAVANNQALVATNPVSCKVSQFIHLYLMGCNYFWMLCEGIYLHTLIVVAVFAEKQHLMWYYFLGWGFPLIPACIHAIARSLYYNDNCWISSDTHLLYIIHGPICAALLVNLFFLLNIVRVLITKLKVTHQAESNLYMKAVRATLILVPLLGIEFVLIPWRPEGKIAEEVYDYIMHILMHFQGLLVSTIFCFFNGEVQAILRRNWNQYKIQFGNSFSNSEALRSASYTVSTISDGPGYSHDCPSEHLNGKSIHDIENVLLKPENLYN
# 348 GPCRs [8] = target: T6, 348 GPCRs (Homo sapiens, UniProt P35348)
# T6 construct: expressed in transfected cells; host or cells: HEK293A
# T6 sequence (P35348 1-466): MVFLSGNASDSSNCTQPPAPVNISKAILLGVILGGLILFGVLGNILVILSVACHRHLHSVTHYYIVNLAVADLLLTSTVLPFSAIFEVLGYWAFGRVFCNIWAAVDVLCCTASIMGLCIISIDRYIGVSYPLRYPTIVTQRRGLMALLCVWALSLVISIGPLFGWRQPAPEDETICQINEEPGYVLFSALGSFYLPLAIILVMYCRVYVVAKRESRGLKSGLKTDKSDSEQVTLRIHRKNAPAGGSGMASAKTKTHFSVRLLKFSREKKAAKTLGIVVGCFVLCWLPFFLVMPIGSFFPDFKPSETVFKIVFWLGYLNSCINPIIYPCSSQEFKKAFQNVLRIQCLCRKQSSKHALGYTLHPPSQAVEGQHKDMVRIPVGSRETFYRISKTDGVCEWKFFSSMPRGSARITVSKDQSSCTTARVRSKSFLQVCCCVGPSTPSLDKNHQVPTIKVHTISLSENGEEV
# 348 GPCRs [9] = target: 348 GPCRs (Homo sapiens, UniProt P28221); conditions: 10µM, Favipiravir 100μM
# 348 GPCRs (Homo sapiens, UniProt P28221), sequence (P28221 whole entry): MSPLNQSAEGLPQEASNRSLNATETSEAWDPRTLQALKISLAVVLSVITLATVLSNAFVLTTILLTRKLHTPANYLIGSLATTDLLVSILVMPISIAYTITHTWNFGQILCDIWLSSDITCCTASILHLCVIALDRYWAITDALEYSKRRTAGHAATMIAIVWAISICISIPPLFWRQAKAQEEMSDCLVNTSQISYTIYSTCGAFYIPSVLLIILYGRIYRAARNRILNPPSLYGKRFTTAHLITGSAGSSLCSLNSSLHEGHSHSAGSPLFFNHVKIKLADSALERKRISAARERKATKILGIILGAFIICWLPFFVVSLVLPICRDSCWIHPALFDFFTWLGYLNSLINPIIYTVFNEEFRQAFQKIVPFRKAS
# 348 GPCRs [10] = target: T7, 348 GPCRs (Homo sapiens, UniProt Q96LB0); conditions: 10µM, Favipiravir 100μM
# T7 construct: expressed in transfected cells; host or cells: HEK293A
# T7 sequence (Q96LB0 whole entry): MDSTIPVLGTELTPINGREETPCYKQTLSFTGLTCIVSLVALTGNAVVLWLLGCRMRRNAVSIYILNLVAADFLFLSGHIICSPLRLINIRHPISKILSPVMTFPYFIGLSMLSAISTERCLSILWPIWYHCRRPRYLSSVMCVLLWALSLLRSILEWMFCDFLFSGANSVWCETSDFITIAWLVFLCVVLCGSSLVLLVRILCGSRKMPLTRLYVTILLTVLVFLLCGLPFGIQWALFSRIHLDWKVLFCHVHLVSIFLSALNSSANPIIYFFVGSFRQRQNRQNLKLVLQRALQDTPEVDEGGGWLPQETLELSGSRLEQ
# [11] = read-out: % GPCR activation compared to TPA, AGTR1 (angiotensin II receptor, type 1)
# [12] = read-out: % GPCR activation compared to TPA, FFA1 (free fatty acid receptor 1)
# [13] = read-out: % GPCR activation compared to TPA, D5 (dopamine receptor D5)
# [14] = read-out: % GPCR activation compared to TPA, GPR37 (G protein-coupled receptor 37)
# [15] = read-out: % GPCR activation compared to TPA, GPCR GPR12 (G protein-coupled receptor 12)
# [16] = read-out: % GPCR activation compared to TPA, CALCRL (calcitonin receptor-like receptor)
# [17] = read-out: % GPCR activation compared to TPA, GPCR α1A (adrenoceptor alpha 1A)
# [18] = read-out: % GPCR activation compared to TPA, 5-HT1D (5-hydroxytryptamine receptor 1D)
# [19] = read-out: % GPCR activation compared to TPA, MRGPRX3 (MAS-related GPR, member X3)
# [20] = AGTR1 (angiotensin II receptor, type 1), read-out: % GPCR activation compared to TPA
# [21] = FFA1 (free fatty acid receptor 1), read-out: % GPCR activation compared to TPA
# [22] = D5 (dopamine receptor D5), read-out: % GPCR activation compared to TPA
# [23] = GPR37 (G protein-coupled receptor 37), read-out: % GPCR activation compared to TPA
# [24] = GPCR GPR12 (G protein-coupled receptor 12), read-out: % GPCR activation compared to TPA
# [25] = CALCRL (calcitonin receptor-like receptor), read-out: % GPCR activation compared to TPA
# [26] = GPCR α1A (adrenoceptor alpha 1A), read-out: % GPCR activation compared to TPA
# [27] = 5-HT1D (5-hydroxytryptamine receptor 1D), read-out: % GPCR activation compared to TPA
# [28] = MRGPRX3 (MAS-related GPR, member X3), read-out: % GPCR activation compared to TPA
Structure (SMILES),activation at 100 µM (348 GPCRs [5]) [%],activation at 10 µM (348 GPCRs [1]; [20]) [%],activation at 10 µM (348 GPCRs [2]; [21]) [%],activation at 100 µM (348 GPCRs [3]; [22]) [%],activation at 10 µM (348 GPCRs [4]; [23]) [%],activation at 10 µM (348 GPCRs [6]; [24]) [%],activation at 100 µM (348 GPCRs [7]; [25]) [%],activation at 10 µM (348 GPCRs [8]; [26]) [%],activation at 100 µM (348 GPCRs [9]; [27]) [%],activation at 100 µM (348 GPCRs [10]; [28]) [%],activation at 10 µM (348 GPCRs [1]; [11]) [%],activation at 10 µM (348 GPCRs [2]; [12]) [%],activation at 100 µM (348 GPCRs [3]; [13]) [%],activation at 10 µM (348 GPCRs [4]; [14]) [%],activation at 10 µM (348 GPCRs [6]; [15]) [%],activation at 100 µM (348 GPCRs [7]; [16]) [%],activation at 10 µM (348 GPCRs [8]; [17]) [%],activation at 100 µM (348 GPCRs [9]; [18]) [%],activation at 100 µM (348 GPCRs [10]; [19]) [%],other results
CC(C)OC(=O)[C@H](C)N[P@](=O)(OC[C@H]1O[C@@H](n2ccc(=O)[nH]c2=O)[C@](C)(F)[C@@H]1O)Oc1ccccc1 [sofosbuvir],-2.64,,,,,,,,,,2.52,-1.47,-1.22,-2.61,-0.471,-3.04,0.301,0.836,0.522,
CCC(CC)COC(=O)[C@H](C)N[P@](=O)(OC[C@H]1O[C@@](C#N)(c2ccc3c(N)ncnn23)[C@H](O)[C@@H]1O)Oc1ccccc1 [remdesivir],-3.05,,,,,,,,,,1.2,-6.96,7.06,-0.881,5.35,4.11,0.479,-5.77,-0.608,

# Second part, led by results:
activation at 100 µM (348 GPCRs [5]) [%],activation at 10 µM (348 GPCRs [1]; [20]) [%],activation at 10 µM (348 GPCRs [2]; [21]) [%],activation at 100 µM (348 GPCRs [3]; [22]) [%],activation at 10 µM (348 GPCRs [4]; [23]) [%],activation at 10 µM (348 GPCRs [6]; [24]) [%],activation at 100 µM (348 GPCRs [7]; [25]) [%],activation at 10 µM (348 GPCRs [8]; [26]) [%],activation at 100 µM (348 GPCRs [9]; [27]) [%],activation at 100 µM (348 GPCRs [10]; [28]) [%],Structure (SMILES),activation at 10 µM (348 GPCRs [1]; [11]) [%],activation at 10 µM (348 GPCRs [2]; [12]) [%],activation at 100 µM (348 GPCRs [3]; [13]) [%],activation at 10 µM (348 GPCRs [4]; [14]) [%],activation at 10 µM (348 GPCRs [6]; [15]) [%],activation at 100 µM (348 GPCRs [7]; [16]) [%],activation at 10 µM (348 GPCRs [8]; [17]) [%],activation at 100 µM (348 GPCRs [9]; [18]) [%],activation at 100 µM (348 GPCRs [10]; [19]) [%],other results
-1.93,-0.396,-2.86,-1.18,-2.05,0.357,-2.18,0.335,0.705,-1.5,CC(C)C(=O)OC[C@H]1O[C@@H](n2ccc(NO)nc2=O)[C@H](O)[C@@H]1O [molnupiravir],,,,,,,,,,
-3.28,0.178,-4.93,3.39,-0.655,,-7.08,,-9.38,-0.33,"NC(=O)c1nc(F)cnc1O [favipiravir, 6-fluoro-3-hydroxy-2-pyrazinecarboxamide]",,,,,,,,,,"activation at 100 µM (348 GPCRs [6]; GPCR GPR12 (G protein-coupled receptor 12), 100μM, read-out: % GPCR activation compared to TPA): 3.7%; activation at 100 µM (348 GPCRs [8]; GPCR α1A (adrenoceptor alpha 1A), 100μM, read-out: % GPCR activation compared to TPA): 0.574%"
-2.68,1.08,-14.2,1.11,-2.53,4.27,0.376,0.0114,-9.87,-0.726,N#C[C@@]1(c2ccc3c(N)ncnn23)O[C@H](CO)[C@@H](O)[C@H]1O [GS441524],,,,,,,,,,
